From paper PMC7269146, “Jingzhaotoxin-X, a gating modifier of Kv4.2 and Kv4.3 potassium channels purified from the venom of the Chinese tarantula Chilobrachys jingzhao” (The Journal of Venomous Animals and Toxins Including …, 2020)
Where a SMILES comes first, the peptide text is derived from it. Bridges are numbered along the chain shown (N, C = ends).

Biological target: T1, Kv4.2 (Rattus norvegicus, UniProt Q63881)
T1 construct: expressed in transfected cells; host or cells: HEK293t
T1 sequence (Q63881 1-630): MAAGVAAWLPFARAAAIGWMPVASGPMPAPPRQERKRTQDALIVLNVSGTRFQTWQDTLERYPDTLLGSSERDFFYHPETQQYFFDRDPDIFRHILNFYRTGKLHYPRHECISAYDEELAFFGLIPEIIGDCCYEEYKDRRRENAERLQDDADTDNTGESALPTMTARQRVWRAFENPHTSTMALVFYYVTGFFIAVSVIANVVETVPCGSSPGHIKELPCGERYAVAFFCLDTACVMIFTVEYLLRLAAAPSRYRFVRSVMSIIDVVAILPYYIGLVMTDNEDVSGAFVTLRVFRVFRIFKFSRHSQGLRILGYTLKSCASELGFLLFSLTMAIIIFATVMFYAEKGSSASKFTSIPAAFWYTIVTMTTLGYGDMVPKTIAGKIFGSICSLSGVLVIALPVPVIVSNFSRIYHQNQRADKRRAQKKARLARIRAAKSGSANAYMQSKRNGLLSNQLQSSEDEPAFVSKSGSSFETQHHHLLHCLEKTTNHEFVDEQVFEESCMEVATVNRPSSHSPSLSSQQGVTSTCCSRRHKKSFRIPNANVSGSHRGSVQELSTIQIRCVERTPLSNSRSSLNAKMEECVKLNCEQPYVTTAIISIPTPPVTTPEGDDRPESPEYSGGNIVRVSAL
Experiment: kinetic constants of JZTX-X at Kv4.2 channel (wash-in / wash-out)
Format: cell-based
Details: test conc. 0.2 μM, n = 6
Text: Rat cDNA genes encoding Kv4.2 (Accession: NM_031730.2) and Kv4.3 (Accession: AB003587.1) were subcloned to vector pcDNA3.1. In addition, human cDNA genes encoding Nav1.7 (Accession: DQ857292.1) and Nav1.5 (Accession: AB158469.2) were subcloned to vectors pcDNA3.1-mod and pcDNA3.1, separately. Then, Kv4.2, Kv4.3, Nav1.5 and Nav1.7 constructs were transiently transfected into the human embryonic kidney 293t (HEK293t) cells using lipofectamine 2000 (Invitrogen, USA) in accordance with manufacturer protocols. Thereafter, HEK293 cells were inoculated within Dulbecco’s modified Eagle’s medium (DMEM) containing 10% fetal bovine serum (FBS) at 5% CO2 and 37°C. The Kv4.3 channel and the Kv4.2 counterpart were then transfected in the absence of β subunit. Subsequently, cells were incubated with a DNA-lipofectamine mixture (one reporter plasmid for green fluorescence protein and channel constructs) for 4-6 h, and were washed with the fresh medium.
An EPC-10 patch-clamp amplifier (HEKA, Germany) was employed to record the potassium currents at the configuration of whole-cell patch-clamp under an ambient temperature of 22-25°C. The resistance was 2.0-3.0 MΩ when the recording pipette contained a full volume of internal solution (supplemented with 140 mM KCl, 10 mM HEPES, 2.5 mM MgCl2, 5 mM ATP and 11 mM EGTA). KOH was utilized to adjust the pH to 7.2, while sucrose was employed to adjust the osmolarity to 310 mOsm/L. The culture medium was replaced with an external solution containing 150 mM NaCl, 2.5 mM CaCl2, 10 mM HEPES, 2 mM MgCl2, 5 mM KCl, and 10 mM D-glucose. Similarly, sucrose and NaOH were applied to adjust the osmolarity to 330 mOsm/L and pH to 7.4. […] The series resistance was maintained at about 5 MΩ, with 65-70% compensation. Finally, the leakage currents and linear capacitance were subtracted digitally according to the P/4 protocol.
As for kinetic calculations, curves as a function of peak currents vs. time were plotted from the toxin wash-out or wash-in moments. The software Sigmaplot 9.0 (Sigma, USA) was utilized to fit data to the first-order exponential equation. […]

CC(C)C[C@@H]1NC(=O)[C@H](CCCCN)NC(=O)[C@H](Cc2ccc(O)cc2)NC(=O)[C@@H]2CSSC[C@@H]3NC(=O)[C@H](Cc4ccc(O)cc4)NC(=O)[C@H](Cc4ccccc4)NC(=O)CNC(=O)[C@H](C)NC(=O)[C@H](CSSC[C@H](NC(=O)[C@@H](N)CC(C)C)C(=O)N[C@@H](CO)C(=O)N[C@@H](CCCNC(=N)N)C(=O)N[C@@H](CCC(=O)O)C(=O)NCC(=O)N[C@@H](CCC(=O)O)C(=O)N[C@@H](Cc4ccccc4)C(=O)N2)NC(=O)[C@H](CSSC[C@@H](C(=O)N[C@@H](Cc2ccc(O)cc2)C(=O)N[C@@H](CCCNC(=N)N)C(=O)N[C@@H](CC(N)=O)C(=O)O)NC(=O)[C@H](Cc2c[nH]cn2)NC(=O)[C@H](CC(C)C)NC(=O)[C@H](C(C)C)NC(=O)[C@H](Cc2ccccc2)NC(=O)[C@H](C)NC(=O)[C@H](CCCCN)NC3=O)NC(=O)[C@H](CCCCN)NC(=O)[C@H](CCCNC(=N)N)NC1=O [JZTX-X, Jingzhaotoxin-X] (H-LCSREGEFCYKLRKCCAGFYCKAFVLHCYRN-OH; disulfide 2-16, 9-21, 15-28; N-terminus assumed) was tested, and the “kmod, Kv4.2 channel” value (inverse of τ of toxin wash-in) was 0.089 ± 0.007 s⁻¹, the koff (inverse of τ of toxin wash-out) was 0.008 ± 0.0006 s⁻¹ and the Kd (kinetic dissociation constant) (method text: Kd = koff / kon, read-out: ki, Kv4.2 channel) was 0.095 ± 0.03 µM.
